Test results from ChEMBL document CHEMBL3797190, “Development of 3,5-Dinitrobenzylsulfanyl-1,3,4-oxadiazoles and Thiadiazoles as Selective Antitubercular Agents Active Against Replicating and Nonreplicating Mycobacterium tuberculosis” (J Med Chem, 2016).
Converted amounts (≈) assume the structure as drawn.

Columns and labels:
Salmonella typhimurium [1] = test: Mutagenic activity in Salmonella typhimurium TA100 assessed as reverse mutation at 30 uM by Ames test; type: toxicity, organism-based; settings: salmonella enterica subsp. enterica serovar typhimurium
Mycobacterium kansasii [2] = test: Antimycobacterial activity against Mycobacterium kansasii CNCTC My 6509/96 after 7 days by microdilution method; type: functional; settings: CNCTC My 6509/96, 168 h
[3] = Cytotoxicity against MDCK2-MDR1 cells assessed as cell viability at 20 uM after 24 hrs by MTS assay; type: ADME, cell-based, Canis lupus familiaris, MDCK-II; settings: dog, read-out: Activity
Mycobacterium kansasii [4] = test: Antimycobacterial activity against Mycobacterium kansasii CNCTC My 235/80 after 7 days by microdilution method; type: functional; settings: CNCTC My 235/80, 168 h
Mycobacterium kansasii [5] = test: Antimycobacterial activity against Mycobacterium kansasii CNCTC My 235/80 after 14 days by microdilution method; type: functional; settings: CNCTC My 235/80, 336 h
Mycobacterium avium [6] = test: Antimycobacterial activity against Mycobacterium avium CNCTC My 330/88 after 21 days by microdilution method; type: functional; settings: CNCTC My 330/88, 504 h
[7] = Cytotoxicity against human HeLa cells assessed as cell viability at 20 uM after 24 hrs by MTS assay; type: cell-based; settings: read-out: Activity
[8] = Cytotoxicity against human HuH7 cells assessed as cell viability at 20 uM after 24 hrs by MTS assay; type: cell-based, Huh-7; settings: read-out: Activity
[9] = Cytotoxicity against MDCK2-MDR1 cells assessed as cell viability after 24 hrs by MTS assay; type: ADME, cell-based; settings: Canis lupus familiaris, MDCK-II
Mycobacterium kansasii [10] = test: Antimycobacterial activity against Mycobacterium kansasii CNCTC My 6509/96 after 14 days by microdilution method; type: functional; settings: CNCTC My 6509/96, 336 h
[11] = Cytotoxicity against human HuH7 cells assessed as cell viability at 20 uM after 48 hrs by MTS assay; type: cell-based, Huh-7; settings: read-out: Activity
HeLa [12] = test: Cytotoxicity against human HeLa cells assessed as cell viability after 24 hrs by MTS assay; type: cell-based
Mycobacterium kansasii [13] = test: Antimycobacterial activity against Mycobacterium kansasii CNCTC My 6509/96 after 21 days by microdilution method; type: functional; settings: CNCTC My 6509/96, 504 h
[14] = Cytotoxicity against MDCK2-MDR1 cells assessed as cell viability at 20 uM after 48 hrs by MTS assay; type: ADME, cell-based, Canis lupus familiaris, MDCK-II; settings: dog, read-out: Activity
[15] = Cytotoxicity against human HeLa cells assessed as cell viability at 20 uM after 48 hrs by MTS assay; type: cell-based; settings: read-out: Activity
Mycobacterium avium [16] = test: Antimycobacterial activity against Mycobacterium avium CNCTC My 330/88 after 14 days by microdilution method; type: functional; settings: CNCTC My 330/88, 336 h
Mycobacterium kansasii [17] = test: Antimycobacterial activity against Mycobacterium kansasii CNCTC My 235/80 after 21 days by microdilution method; type: functional; settings: CNCTC My 235/80, 504 h
[18] = system: Mycobacterium tuberculosis; test: Antimycobacterial activity against Mycobacterium tuberculosis CNCTC My 331/88 after 14 days by microdilution method; type: functional; settings: CNCTC My 331/88, 336 h
HeLa [19] = test: Cytotoxicity against human HeLa cells assessed as cell viability after 48 hrs by MTS assay; type: cell-based
[20] = Cytotoxicity against human HuH7 cells assessed as cell viability after 24 hrs by MTS assay; type: cell-based; settings: Huh-7, 24 h
[21] = system: Mycobacterium tuberculosis; test: Antimycobacterial activity against Mycobacterium tuberculosis CNCTC My 331/88 after 21 days by microdilution method; type: functional; settings: CNCTC My 331/88, 504 h
[22] = Cytotoxicity against MDCK2-MDR1 cells assessed as cell viability after 48 hrs by MTS assay; type: ADME, cell-based; settings: Canis lupus familiaris, MDCK-II
Salmonella typhimurium [23] = test: Mutagenic activity in Salmonella typhimurium TA98 assessed as reverse mutation at 30 uM by Ames test; type: toxicity, organism-based; settings: salmonella enterica subsp. enterica serovar typhimurium
Klebsiella pneumoniae [24] = test: Antibacterial activity against Klebsiella pneumoniae D 11750/08 after 24 to 48 hrs by broth microdilution method; type: functional
Candida tropicalis = test: Antifungal activity against Candida tropicalis 156 after 24 to 48 hrs by broth microdilution method; type: functional
Candida albicans = test: Antifungal activity against Candida albicans ATCC 44859 after 24 to 48 hrs by broth microdilution method; type: functional
Pseudomonas aeruginosa = test: Antibacterial activity against Pseudomonas aeruginosa ATCC 9027 after 24 to 48 hrs by broth microdilution method; type: functional
Klebsiella pneumoniae [25] = test: Antibacterial activity against ESBL producing Klebsiella pneumoniae J 14368/08 after 24 to 48 hrs by broth microdilution method; type: functional
[26] = system: Staphylococcus epidermidis; test: Antibacterial activity against Staphylococcus epidermidis H 6966/08 after 24 to 48 hrs by broth microdilution method; type: functional
Lichtheimia corymbifera = test: Antifungal activity against Absidia corymbifera 272 after 24 to 48 hrs by broth microdilution method; type: functional
Trichosporon asahii = test: Antifungal activity against Trichosporon asahii 1188 after 24 to 48 hrs by broth microdilution method; type: functional
Nakaseomyces glabratus = test: Antifungal activity against Candida glabrata 20/I after 24 to 48 hrs by broth microdilution method; type: functional
Escherichia coli = test: Antibacterial activity against Escherichia coli ATCC 8739 after 24 to 48 hrs by broth microdilution method; type: functional
[27] = system: Trichophyton mentagrophytes; test: Antifungal activity against Trichophyton mentagrophytes 445 after 72 to 120 hrs by broth microdilution method; type: functional
Aspergillus fumigatus = test: Antifungal activity against Aspergillus fumigatus 231 after 24 to 48 hrs by broth microdilution method; type: functional
Enterococcus faecalis = test: Antibacterial activity against Enterococcus faecalis J 14365/08 after 24 to 48 hrs by broth microdilution method; type: functional
Staphylococcus aureus [28] = test: Antibacterial activity against methicillin-resistant Staphylococcus aureus H 5996/08 after 24 to 48 hrs by broth microdilution method; type: functional
Staphylococcus aureus [29] = test: Antibacterial activity against Staphylococcus aureus ATCC 6538 after 24 to 48 hrs by broth microdilution method; type: functional
Pichia kudriavzevii = test: Antifungal activity against Candida krusei E28 after 24 to 48 hrs by broth microdilution method; type: functional

Structure (SMILES)	Activity (Salmonella typhimurium [1])	MIC99 (Mycobacterium kansasii [2]) [µM]	viability at 24 h, 20 µM [3] [%]	MIC99 (Mycobacterium kansasii [4]) [µM]	MIC99 (Mycobacterium kansasii [5]) [µM]	MIC99 (Mycobacterium avium [6]) [µM]	viability at 24 h, 20 µM [7] [%]	viability at 24 h, 20 µM [8] [%]	IC50 [9] [µM]	MIC99 (Mycobacterium kansasii [10]) [µM]	viability at 48 h, 20 µM [11] [%]	IC50 (HeLa [12]) [µM]	MIC99 (Mycobacterium kansasii [13]) [µM]	viability at 48 h, 20 µM [14] [%]	viability at 48 h, 20 µM [15] [%]	MIC99 (Mycobacterium avium [16]) [µM]	MIC99 (Mycobacterium kansasii [17]) [µM]	MIC99 [18] [µM]	IC50 (HeLa [19]) [nM]	MIC99 [21] [µM]	further results
[N-]=[N+]=[N-].[Na+] [SODIUM AZIDE]	Toxic																				
O=[N+]([O-])c1cc(CSc2nnc(-c3cccc(Cl)c3)s2)cc([N+](=O)[O-])c1		0.25 (≈ 0.102 µg/mL)	108	0.25 (≈ 0.102 µg/mL)	1 (≈ 0.409 µg/mL)	16 (≈ 6.54 µg/mL)	78.6	90.7	> 20	0.5 (≈ 0.204 µg/mL)	32.8	> 20	0.5 (≈ 0.204 µg/mL)	48.6	16.8	8 (≈ 3.27 µg/mL)	1 (≈ 0.409 µg/mL)	0.125 (≈ 0.0511 µg/mL)	2600	0.125 (≈ 0.0511 µg/mL)	IC50 [20]: > 20 µM
O=[N+]([O-])c1cc(CSc2nnc(-c3ccccc3)s2)cc([N+](=O)[O-])c1	Non-toxic	0.25 (≈ 0.0936 µg/mL)	97.8	0.25 (≈ 0.0936 µg/mL)	0.5 (≈ 0.187 µg/mL)	16 (≈ 5.99 µg/mL)	78.5	84.3	> 20	0.5 (≈ 0.187 µg/mL)	36.3	> 20	1 (≈ 0.374 µg/mL)	7.3	15.9	8 (≈ 3 µg/mL)	1 (≈ 0.374 µg/mL)	0.06 (≈ 0.0225 µg/mL)	2400	0.125 (≈ 0.0468 µg/mL)	IC50 [22]: 3.1 µM; Activity (Salmonella typhimurium [23]): Non-toxic; IC50 [20]: > 20 µM
O=[N+]([O-])c1cc(CSc2nnc(-c3ccc(Cl)cc3)o2)cc([N+](=O)[O-])c1						> 125							0.5 (≈ 0.196 µg/mL)			> 125					MIC95 (Klebsiella pneumoniae [24]): > 125 µM; MIC80 (Candida tropicalis): > 125 µM; MIC80 (Candida albicans): > 125 µM; MIC95 (Pseudomonas aeruginosa): > 125 µM; MIC95 (Klebsiella pneumoniae [25]): > 125 µM; MIC95 [26]: > 125 µM; MIC50 (Lichtheimia corymbifera): > 125 µM; MIC80 (Trichosporon asahii): > 125 µM; MIC80 (Nakaseomyces glabratus): > 125 µM; MIC95 (Escherichia coli): > 125 µM; MIC50 [27]: > 125 µM; MIC50 (Aspergillus fumigatus): > 125 µM; MIC95 (Enterococcus faecalis): > 125 µM; MIC95 (Staphylococcus aureus [28]): > 125 µM; MIC95 (Staphylococcus aureus [29]): > 125 µM; MIC80 (Pichia kudriavzevii): > 125 µM
CCCCCCCCCCCc1nnc(SCc2cc([N+](=O)[O-])cc([N+](=O)[O-])c2)o1		0.25 (≈ 0.109 µg/mL)		0.125 (≈ 0.0546 µg/mL)	0.25 (≈ 0.109 µg/mL)	8 (≈ 3.49 µg/mL)				0.25 (≈ 0.109 µg/mL)			0.25 (≈ 0.109 µg/mL)			4 (≈ 1.75 µg/mL)	0.25 (≈ 0.109 µg/mL)	0.25 (≈ 0.109 µg/mL)		0.25 (≈ 0.109 µg/mL)	MIC95 (Klebsiella pneumoniae [24]): > 125 µM; MIC80 (Candida tropicalis): > 125 µM; MIC80 (Candida albicans): > 125 µM; MIC95 (Pseudomonas aeruginosa): > 125 µM; MIC95 (Klebsiella pneumoniae [25]): > 125 µM; MIC95 [26]: > 125 µM; MIC50 (Lichtheimia corymbifera): > 125 µM; MIC80 (Trichosporon asahii): > 125 µM; MIC80 (Nakaseomyces glabratus): > 125 µM; MIC95 (Escherichia coli): > 125 µM; MIC50 [27]: > 125 µM; MIC50 (Aspergillus fumigatus): > 125 µM; MIC95 (Enterococcus faecalis): > 125 µM; MIC95 (Staphylococcus aureus [28]): > 125 µM; MIC95 (Staphylococcus aureus [29]): > 125 µM; MIC80 (Pichia kudriavzevii): > 125 µM
